Data: patent publication US8772480B2, “Inhibitors of PI3 kinase and/or mTOR” (priority 2009, dated 2014)
Read-outs that look alike come from different tables or passages of the source. Each block holds one compound with its values, some of them ahead of it.

Legend:
PI3Kα [1] = biological target: T1, PI3Kα (Homo sapiens (Human), UniProt P42336); experiment: biochemical; conditions: PI3Kα AlphaScreen ® Ki
[2] = test system: phosphorylation of Akt at Serine 473 in U87 MG cells; experiment: cells; conditions: Homo sapiens, U-87 MG, 2 h, read-out: U87Cell IC50, pAkt (Ser 473), U87 MG cells, two hours with compound
[3] = test system: phosphorylation of Akt at Serine 473 in U87 MG cells; conditions: read-out: U87Cell IC50
PI3Kα [4] = biological target: T1, PI3Kα; conditions: read-out: PI3Kα AlphaScreen ® Ki

T1 sequence (P42336 whole entry): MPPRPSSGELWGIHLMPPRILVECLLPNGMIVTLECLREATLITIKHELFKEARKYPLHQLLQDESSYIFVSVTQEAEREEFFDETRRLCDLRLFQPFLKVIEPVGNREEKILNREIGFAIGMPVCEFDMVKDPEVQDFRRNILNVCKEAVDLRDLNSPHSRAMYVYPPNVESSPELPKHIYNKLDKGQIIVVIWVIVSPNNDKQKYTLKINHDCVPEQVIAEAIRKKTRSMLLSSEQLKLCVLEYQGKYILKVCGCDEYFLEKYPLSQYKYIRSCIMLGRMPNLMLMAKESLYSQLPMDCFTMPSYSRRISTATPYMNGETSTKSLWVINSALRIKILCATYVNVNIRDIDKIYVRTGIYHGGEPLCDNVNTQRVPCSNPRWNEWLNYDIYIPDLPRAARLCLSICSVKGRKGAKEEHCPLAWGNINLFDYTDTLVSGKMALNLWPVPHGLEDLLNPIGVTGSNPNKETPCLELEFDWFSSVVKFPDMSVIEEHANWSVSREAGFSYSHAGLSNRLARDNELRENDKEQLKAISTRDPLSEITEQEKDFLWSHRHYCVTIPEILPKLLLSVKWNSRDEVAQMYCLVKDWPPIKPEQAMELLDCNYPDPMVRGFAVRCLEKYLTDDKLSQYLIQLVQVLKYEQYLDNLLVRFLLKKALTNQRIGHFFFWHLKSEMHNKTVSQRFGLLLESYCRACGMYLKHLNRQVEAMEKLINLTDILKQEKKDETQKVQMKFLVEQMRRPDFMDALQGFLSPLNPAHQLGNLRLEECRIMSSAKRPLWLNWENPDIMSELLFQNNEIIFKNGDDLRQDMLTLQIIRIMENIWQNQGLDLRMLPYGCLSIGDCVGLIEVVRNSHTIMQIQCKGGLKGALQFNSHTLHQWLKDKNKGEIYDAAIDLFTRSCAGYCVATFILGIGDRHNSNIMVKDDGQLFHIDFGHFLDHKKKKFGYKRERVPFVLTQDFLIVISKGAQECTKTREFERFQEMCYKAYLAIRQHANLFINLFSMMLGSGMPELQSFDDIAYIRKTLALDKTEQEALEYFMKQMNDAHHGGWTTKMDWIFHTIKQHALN
T1 sequence (P27986 whole entry partner): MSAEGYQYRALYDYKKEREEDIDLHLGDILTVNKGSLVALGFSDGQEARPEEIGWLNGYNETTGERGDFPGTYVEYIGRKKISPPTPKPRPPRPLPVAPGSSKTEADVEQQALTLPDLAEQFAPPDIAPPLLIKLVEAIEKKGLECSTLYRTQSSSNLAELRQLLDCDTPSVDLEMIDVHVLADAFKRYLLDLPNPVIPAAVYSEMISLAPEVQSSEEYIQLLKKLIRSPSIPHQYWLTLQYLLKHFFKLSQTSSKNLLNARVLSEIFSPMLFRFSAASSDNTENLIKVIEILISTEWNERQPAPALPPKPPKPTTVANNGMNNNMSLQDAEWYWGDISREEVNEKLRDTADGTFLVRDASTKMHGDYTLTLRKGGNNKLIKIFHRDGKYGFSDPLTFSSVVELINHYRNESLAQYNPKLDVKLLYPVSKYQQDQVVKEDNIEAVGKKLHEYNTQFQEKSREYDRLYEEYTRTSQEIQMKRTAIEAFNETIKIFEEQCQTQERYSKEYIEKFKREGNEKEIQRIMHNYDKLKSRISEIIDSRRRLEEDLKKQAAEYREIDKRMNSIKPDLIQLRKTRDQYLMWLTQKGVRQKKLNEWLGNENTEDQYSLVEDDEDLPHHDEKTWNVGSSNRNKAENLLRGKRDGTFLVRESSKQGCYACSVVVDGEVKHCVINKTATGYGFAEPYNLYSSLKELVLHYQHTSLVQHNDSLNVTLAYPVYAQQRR

Compound: COc1ccc(Nc2ncc([C@@H](O)C(C)(C)C)cc2-c2nc(C)nc3c2ncn3C2CCCCO2)cn1 (stereo partly drawn) [Example 132, (1S)-1-(6-(6-Methoxypyridin-3-Ylamino)-5-(2-Methyl-9-(Tetrahydro-2H-Pyran-2-yl)-9H-Purin-6-yl)Pyridin-3-yl)-2,2-Dimethylpropan-1-ol]
Ki (PI3Kα [1]): 12 nM
IC50 [2]: 147 nM

Compound: COc1ccc(Nc2ncc(CN3CCN(C(=O)N(C)C4CC4)CC3)cc2-c2nc(C)nc(N)n2)cn1 [Example 359, 4-((5-(4-Amino-6-Methyl-1,3,5-Triazin-2-yl)-6-(6-Methoxypyridin-3-Ylamino)Pyridin-3-yl)Methyl)-N-Cyclopropyl-N-Methylpiperazine-1-Carboxamide]
Ki (PI3Kα [1]): 45 nM
IC50 [2]: 90 nM

Compound: 4-((5-(4-Amino-6-Methyl-1,3,5-Triazin-2-yl)-6-(5-Fluoro-6-Methoxypyridin-3-Ylaamino)Pyridin-3-yl)Methyl)-N-Methyl-N-(2,2,2-Trifluoroethyl)Piperazine-1-Carboxamide [Example 358]
IC50 [3]: 121 nM
Ki (PI3Kα [4]): 24 nM

Next, values leading:

Ki (PI3Kα [1]): 31 nM
IC50 [2]: 278 nM
Compound: COc1ccc(Nc2ncc([C@H](O)C(C)(C)C)cc2-c2nc(C)nc3c2ncn3C2CCCCO2)cn1 (stereo partly drawn) [Example 133, (1R)-1-(6-(6-Methoxypyridin-3-Ylamino)-5-(2-Methyl-9-(Tetrahydro-2H-Pyran-2-yl)-9H-Purin-6-yl)Pyridin-3-yl)-2,2-Dimethylpropan-1-ol]

IC50 ([3]; pAkt (Ser 473), U87 MG cells, two hours with compound): 89 nM
Ki (PI3Kα [4]): 33 nM
Compound: COc1ccc(Nc2ncc([C@@H](O)C(F)(F)F)cc2-c2nc(C)nc(N)n2)cn1.COc1ccc(Nc2ncc([C@H](O)C(F)(F)F)cc2-c2nc(C)nc(N)n2)cn1 (racemic) [Example 269, (R,S)-1-(5-(4-Amino-6-Methyl-1,3,5-Triazin-2-yl)-6-(6-Methoxypyridin-3-Ylamino)Pyridin-3-yl)-2,2,2-Trifluoroethanol]
